Results on one compound are retold here after the NIST ThermoML archive (doi:10.1021/je0600552).

± gives the expanded uncertainty stated by the source.

For series [1] the following is noted: Crystal; DTA.
Series [2] can be described thus: Molar enthalpy of transition or fusion. As to conditions: Crystal; DSC.

Consider `Cc1ccc2[nH]c3c(c2c1)CCCC3=O` [1-keto-1,2,3,4-tetrahydro-6-methylcarbazole], for which the Normal melting temperature in series [1] was determined as 195.30 ± 0.9 °C. Moreover, in series [2], the “Molar enthalpy of transition or fusion” value amounted to 6.43 ± 0.143 kcal/mol.
